Test results: PMC3325374 (Journal of Medicinal Chemistry, 2012)

Tested on: MDR1-MDCK cell monolayers
Test: MDR1-MDCK monolayer permeability assay
Format: in vitro ADME
Conditions: judged from MDR1-MDCK efflux ratio

P-gp mediated efflux (in words): subject to P-gp mediated efflux
Structure (SMILES): N#CCNC(=O)[C@H](Cc1c[nH]cn1)NC(=O)OCc1ccccc1 [Compound 10]
